According to patent US9408842B2, “Substituted pyrano and furanoquinolines, their preparation and use as medicaments” (LABORATORIOS DEL DR. ESTEVE S.A., priority 2012, dated 2016):
Structures can show the parent of a compound that is named as a salt.

Target: T1, σ1-receptor (Cavia porcellus, UniProt Q60492)
T1 construct: Guinea pig brains were homogenized in 10 vols; (w/v) of Tris-HCl 50 mM 0.32 M sucrose, pH 7.4; from tissue; host or cells: guinea pig brain membranes
Assay: binding assay for the σ1-receptor, [3H]-(+)-pentazocine, brain membranes
Conditions: guinea pig brain membranes; radioligand [3H]-(+)-pentazocine 5.0 nM; 150 min at 37° C.; nonspecific binding with 1 μM haloperidol
Method: Guinea pig brains were homogenized in 10 vols. (w/v) of Tris-HCl 50 mM 0.32 M sucrose, pH 7.4, with a Kinematica Polytron PT 3000 at 15000 r.p.m. for 30 s. The homogenate was centrifuged at 1000 g for 10 min at 4° C. and the supernatants collected and centrifuged again at 48000 g for 15 min at 4° C. The pellet was resuspended in 10 volumes of Tris-HCl buffer (50 mM, pH 7.4), incubated at 37° C. for 30 min, and centrifuged at 48000 g for 20 min at 4° C. Following this, the pellet was re-suspended in fresh Tris-HCl buffer (50 mM, pH 7.4) and stored on ice until use.
The radioligand used was [^3H]-(+)-pentazocine at 5.0 nM and the final volume was 200 μl. The incubation was initiated with the addition of 100 μl of membrane at a final tissue concentration of approximately 5 mg tissue net weight/mL and the incubation time was 150 m. at 37° C. After incubation, the membranes were collected onto pretreated glass fiber filterplate (MultiScreen-FC, Millipore), with polyethylenimine 0.1%. The filters were washed two times with 200 μl of washing buffer (50 mM Tris Cl, pH=7.4) and then 25 μl of Ecoscint H liquid scintillation cocktail were added. […] Nonspecific binding was determined with 1 μM haloperidol.

T1 sequence (Q60492 whole entry): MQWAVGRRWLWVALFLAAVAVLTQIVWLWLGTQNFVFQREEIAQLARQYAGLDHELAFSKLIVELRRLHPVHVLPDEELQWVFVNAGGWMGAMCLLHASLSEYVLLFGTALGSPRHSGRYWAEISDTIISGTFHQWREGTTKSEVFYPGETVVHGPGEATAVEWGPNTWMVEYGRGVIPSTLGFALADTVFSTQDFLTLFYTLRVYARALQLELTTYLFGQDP

Ki [nM]	SMILES
187	Clc1cccc(Oc2ccc3c(c2)[C@H]2OCCC[C@H]2[C@@H](C2CCCCC2)N3)c1 (racemic) [Example 1, (4aSR*,5RS*,10bSR*)-9-(3-chlorophenoxy)-5-cyclohexyl-3,4,4a,5,6,10b-hexahydro-2H-pyrano[3,2-c]quinoline hydrochloride]
349	c1ccc(Oc2ccc3c(c2)[C@H]2OCCC[C@H]2[C@@H](C2CCSCC2)N3)cc1 (racemic) [Example 71, (4aSR*,5RS*,10bSR*)-9-phenoxy-5-(tetrahydro-2H-thiopyran-4-yl)-3,4,4a,5,6,10b-hexahydro-2H-pyrano[3,2-c]quinoline hydrochloride]
51.6	CC(C)CCOc1ccc2c(c1)[C@H]1OCCC[C@H]1[C@@H](C1CCCCC1)N2 (racemic) [Example 27, (4aSR*,5RS*,10bSR*)-5-cyclohexyl-9-(isopentyloxy)-3,4,4a,5,6,10b-hexahydro-2H-pyrano[3,2-c]quinoline hydrochloride]
244	CCCCCc1ccc2c(c1)[C@H]1OCC[C@H]1[C@@H](C1CCCCC1)N2 (racemic) [Example 84, (3aSR*,4RS*,9bSR*)-4-cyclohexyl-8-pentyl-2,3,3a,4,5,9b-hexahydrofuro[3,2-c]quinoline hydrochloride]
124	CC(C)CCOc1ccc2c(c1)[C@H]1OCCC[C@H]1[C@@H](C1CCCC1)N2 (racemic) [Example 105, (4aSR*,5RS*,10bSR*)-5-cyclopentyl-9-(isopentyloxy)-3,4,4a,5,6,10b-hexahydro-2H-pyrano[3,2-c]quinoline hydrochloride]
131	c1cc2c(cc1OCCN1CCOCC1)[C@H]1OCC[C@H]1[C@@H](C1CCCCC1)N2 (racemic) [Example 41, (3aSR*,4RS*,9bSR*)-4-cyclohexyl-8-(2-morpholinoethoxy)-2,3,3a,4,5,9b-hexahydrofuro[3,2-c]quinoline hydrochloride]
134	NCCCOc1ccc2c(c1)[C@H]1OCCC[C@H]1[C@@H](C1CCCCC1)N2 (racemic) [Example 112, 3-((4aSR*,5RS*,10bSR*)-5-cyclohexyl-3,4,4a,5,6,10b-hexahydro-2H-pyrano[3,2-c]quinolin-9-yloxy)propan-1-amine hydrochloride]
242	NCCCCOc1ccc2c(c1)[C@H]1OCCC[C@H]1[C@@H](C1CCCCC1)N2 (racemic) [Example 111, 4-((4aSR*,5RS*,10bSR*)-5-cyclohexyl-3,4,4a,5,6,10b-hexahydro-2H-pyrano[3,2-c]quinolin-9-yloxy)butan-1-amine hydrochloride]
279	COc1ccc2c(c1)[C@H]1OCCC[C@H]1[C@@H](C1CCN(CCc3ccccc3)CC1)N2 (racemic) [Example 108, (4aSR*,5RS*,10bSR*)-9-methoxy-5-(1-phenethylpiperidin-4-yl)-3,4,4a,5,6,10b-hexahydro-2H-pyrano[3,2-c]quinoline hydrochloride]
194	Clc1ccc(Oc2ccc3c(c2)[C@H]2OCCC[C@H]2[C@@H](C2CCCCC2)N3)cc1 (racemic) [Example 55, (4aSR*,5RS*,10bSR*)-9-(4-chlorophenoxy)-5-cyclohexyl-3,4,4a,5,6,10b-hexahydro-2H-pyrano[3,2-c]quinoline hydrochloride]
317	CCN1CCC([C@H]2Nc3ccc(OCCC(C)C)cc3[C@H]3OCCC[C@H]32)CC1 (racemic) [Example 110, (4aSR*,5RS*,10bSR*)-5-(1-ethylpiperidin-4-yl)-9-(isopentyloxy)-3,4,4a,5,6,10b-hexahydro-2H-pyrano[3,2-c]quinoline hydrochloride]
155	CCCCCc1ccc2c(c1)[C@H]1OCC[C@H]1[C@@H](C1CCOCC1)N2 (racemic) [Example 85, (3aSR*,4RS*,9bSR*)-8-pentyl-4-(tetrahydro-2H-pyran-4-yl)-2,3,3a,4,5,9b-hexahydrofuro[3,2-c]quinoline hydrochloride]

SMILES	Ki [nM]
CCCCOc1ccc2c(c1)[C@H]1OCCC[C@H]1[C@@H](C1CCCCC1)N2 (racemic) [Example 16, (4aSR*,5RS*,10bSR*)-9-butoxy-5-cyclohexyl-3,4,4a,5,6,10b-hexahydro-2H-pyrano[3,2-c]quinoline hydrochloride]	122
